Experimental data as given in patent publication US20100292185A1, “BETA-LACTAMASE INHIBITORS” (priority 2009, published 2010).
pIC50: −log10 of the molar value. Where a name gives a salt, the structure may show the parent alone.

What was measured:
p99 AmpC β-lactamase = molecular target: T1, p99 AmpC β-lactamase (Enterobacter cloacae, UniProt P05364); assay: β-lactamase enzyme inhibition assay (nitrocefin substrate), P99 AmpC; assay type: biochemical; conditions: nitrocefin 100 μM, 37° C., PBS pH 7.0; read-out: P99 AmpC IC50
T1 construct: expressed as native untagged proteins; made in house; host or cells: E. coli BL21(DE3)
In short: (§1)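 IC50 values reflect a 50% drop in the initial rate of nitrocefin (100 μM final) hydrolysis, monitored at 486 nm. Inhibitor was preincubated with the purified native enzyme for 10 min at 37 °C in PBS pH 7.0.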

[1] = system: K. pneumoniae expressing the Class A carbapenemase KPC-2; assay: microbe, parasite or virus in culture; assay type: cell-based; conditions: in presence of Ceftazidime 8 μg/ml (Examples 1-56)
In short: (§2)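 CAMHB microdilution, CLSI inoculum. Cells grown 3-5 h + 50 μg/mL ampicillin. Cpd 2-fold serial, 8–0.015 μg/mL final, with β-lactam partner. 37° C, 16-20 h; visual MIC.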

[2] = system: K. pneumoniae expressing the Class A Extended Spectrum Beta-Lactamase (ESBL) CTX-M-15; assay: In vitro antibacterial assay of β-lactamase inhibition (broth microdilution MIC), K. pneumoniae CTX-M-15; assay type: cell-based; conditions: in presence of Ceftazidime 8 μg/ml (Examples 1-56)
In short: as §2

[3] = system: P. aeruginosa expressing the Class B metallo β-lactamase VIM-2; assay: In vitro antibacterial assay of β-lactamase inhibition (broth microdilution MIC), P. aeruginosa VIM-2; assay type: cell-based; conditions: in presence of Ceftazidime 16 μg/mL (Examples 1-56)
In short: as §2

CTX-M15 β-lactamase = molecular target: T2, CTX-M15 β-lactamase (Escherichia coli, UniProt Q9EXV5); assay: β-lactamase enzyme inhibition assay (nitrocefin substrate), CTXM-15; assay type: biochemical
T2 construct: expressed as native untagged proteins; made in house; host or cells: E. coli BL21(DE3)
In short: as §1

[4] = system: E. coli expressing the Class A ESBL SHV-5; assay: In vitro antibacterial assay of β-lactamase inhibition (broth microdilution MIC), E. coli SHV-5; assay type: cell-based; conditions: in presence of Ceftazidime 8 μg/ml (Examples 1-56)
In short: as §2

OXA-23 β-lactamase = molecular target: T3, OXA-23 β-lactamase (Acinetobacter baumannii, UniProt Q9L4P2); assay: β-lactamase enzyme inhibition assay (nitrocefin substrate), OXA-23 crude extract; assay type: biochemical; conditions: nitrocefin 100 μM, 37° C., PBS pH 7.0; read-out: OXA-23 IC50
T3 construct: crude β-lactamase extracts were prepared from 20 ml overnight cultures; endogenous in cells; host or cells: Acinetobacter baumannii cells containing OXA-23 (crude freeze-thaw extract)
In short: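 Crude enzyme came from freeze-thaw extracts of mid-log OXA-23-carrying A. baumannii grown in MH-II broth at 37° C. Inhibitors (100–0.005 μM in PBS pH 7.0) were preincubated with the enzyme for 10 min at 37° C, then 100 μM nitrocefin (final) was added and read kinetically at 486 nm for 10 min. IC50 was taken from initial hydrolysis rates relative to uninhibited controls.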

KPC-2 β-lactamase = molecular target: T4, KPC-2 β-lactamase (Klebsiella pneumoniae, UniProt Q9F663); assay: β-lactamase enzyme inhibition assay (nitrocefin substrate), KPC-2; assay type: biochemical
T4 construct: expressed as native untagged proteins; made in house; host or cells: E. coli BL21(DE3)
In short: as §1

[5] = system: E. cloacae expressing the Class C P99+; assay: In vitro antibacterial assay of β-lactamase inhibition (broth microdilution MIC), E. cloacae P99+; assay type: cell-based; conditions: in presence of Ceftazidime 8 μg/ml (Examples 1-56)
In short: as §2

SHV-5 β-lactamase = molecular target: T5, SHV-5 β-lactamase (Klebsiella pneumoniae, UniProt P0A3M1); assay: β-lactamase enzyme inhibition assay (nitrocefin substrate), SHV-5; assay type: biochemical
T5 construct: expressed as native untagged proteins; made in house; host or cells: E. coli BL21(DE3)
In short: as §1

[6] = molecular target: T6, VIM-2 metallo β-lactamase (Pseudomonas aeruginosa, UniProt Q9K2N0); assay: β-lactamase enzyme inhibition assay (nitrocefin substrate), VIM-2; assay type: biochemical; conditions: nitrocefin 100 μM, 37° C., PBS pH 7.0; read-out: VIM-2 IC50
T6 construct: made in house
In short: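 VIM-2 was expressed untagged in E. coli BL21(DE3) and purified by two Q sepharose anion-exchange runs plus gel filtration to >90% purity. Compounds at 100–0.005 μM in PBS pH 7.0 were preincubated with enzyme for 10 min at 37° C, then nitrocefin was added at 100 μM final. Hydrolysis was followed kinetically at 486 nm for 10 min; IC50 is the concentration halving the initial rate relative to no-inhibitor wells.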

T3 sequence (Q9L4P2 18-273): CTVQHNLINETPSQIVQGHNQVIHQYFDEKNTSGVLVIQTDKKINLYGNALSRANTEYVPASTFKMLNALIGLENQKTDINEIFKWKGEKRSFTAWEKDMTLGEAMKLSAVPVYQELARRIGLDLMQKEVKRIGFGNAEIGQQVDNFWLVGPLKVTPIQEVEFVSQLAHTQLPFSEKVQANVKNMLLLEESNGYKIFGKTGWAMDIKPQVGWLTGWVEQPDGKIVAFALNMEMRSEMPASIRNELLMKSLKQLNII
T2 sequence (Q9EXV5 entry or part of it): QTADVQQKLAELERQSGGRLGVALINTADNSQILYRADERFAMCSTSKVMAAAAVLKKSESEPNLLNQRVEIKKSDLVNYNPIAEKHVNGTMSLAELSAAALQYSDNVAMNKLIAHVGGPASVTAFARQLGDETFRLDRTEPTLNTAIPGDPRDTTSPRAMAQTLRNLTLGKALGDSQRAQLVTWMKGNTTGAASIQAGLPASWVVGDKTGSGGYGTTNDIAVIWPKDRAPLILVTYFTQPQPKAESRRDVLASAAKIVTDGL
T1 sequence (P05364 21-381): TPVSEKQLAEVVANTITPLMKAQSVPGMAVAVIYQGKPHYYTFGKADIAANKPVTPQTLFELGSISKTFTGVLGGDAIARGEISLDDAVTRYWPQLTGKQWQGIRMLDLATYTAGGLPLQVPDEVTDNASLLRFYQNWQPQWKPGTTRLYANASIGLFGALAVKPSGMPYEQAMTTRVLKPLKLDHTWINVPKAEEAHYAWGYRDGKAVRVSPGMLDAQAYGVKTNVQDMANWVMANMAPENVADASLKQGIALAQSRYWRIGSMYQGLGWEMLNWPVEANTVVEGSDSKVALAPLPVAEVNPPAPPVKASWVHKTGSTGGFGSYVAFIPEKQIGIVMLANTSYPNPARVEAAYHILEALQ
T5 sequence (P0A3M1 22-286): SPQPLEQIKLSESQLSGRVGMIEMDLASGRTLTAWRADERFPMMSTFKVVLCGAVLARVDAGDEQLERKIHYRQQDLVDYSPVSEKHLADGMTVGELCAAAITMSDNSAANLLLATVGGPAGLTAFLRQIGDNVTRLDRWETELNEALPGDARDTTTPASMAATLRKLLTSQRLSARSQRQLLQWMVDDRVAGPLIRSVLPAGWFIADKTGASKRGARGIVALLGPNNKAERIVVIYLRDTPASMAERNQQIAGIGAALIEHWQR
T4 sequence (Q9F663 25-293 limits assumed): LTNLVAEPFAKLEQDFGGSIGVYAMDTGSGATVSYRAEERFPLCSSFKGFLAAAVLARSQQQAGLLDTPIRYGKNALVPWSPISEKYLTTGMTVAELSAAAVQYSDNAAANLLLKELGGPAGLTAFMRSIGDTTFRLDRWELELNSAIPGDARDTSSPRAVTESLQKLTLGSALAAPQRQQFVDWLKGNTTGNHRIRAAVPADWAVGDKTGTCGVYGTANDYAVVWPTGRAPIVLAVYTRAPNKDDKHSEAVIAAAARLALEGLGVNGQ

Compound | pIC50 (p99 AmpC β-lactamase) | MIC of example compound, K. pneumoniae KPC-2 [1] | MIC of example compound, K. pneumoniae CTX-M-15 [2] | MIC of example compound, P. aeruginosa VIM-2 [3] | pIC50 (CTX-M15 β-lactamase) | MIC of example compound, E. coli SHV-5 [4] | pIC50 (OXA-23 β-lactamase) | pIC50 (KPC-2 β-lactamase) | MIC of example compound, E. cloacae P99+ [5] | pIC50 (SHV-5 β-lactamase) | pIC50 [6]
NCCNCc1cccc(C(=O)N[C@@H](Cc2cccc(C(=O)O)c2O)B(O)O)c1 [Example 18, (1R)-[3-{(2-aminoethylamino)-methyl}-benzoylamino]-(3-carboxy-2-hydroxy)benzyl-methylboronic acid formate] | 9.52 | 0.06 µg/mL | 0.5 µg/mL | >8 µg/mL | 9.00 | 8 µg/mL | 7.39 | 7.85 | 0.25 µg/mL | 6.59 | 7.00
O=C(N[C@@H](Cc1cccc(C(=O)O)c1O)B(O)O)c1cccc(CNCc2cccnc2)c1 [Example 19, (1R)-(3-{[(pyridin-3-ylmethyl)amino]methyl}-benzoylamino)-(3-carboxy-2-hydroxy)benzyl-methylboronic acid formate] | 9.70 | 0.12 µg/mL | 2 µg/mL | >8 µg/mL | 9.00 | 8 µg/mL | 7.72 | 8.22 | 2 µg/mL | 7.27 | 6.29
O=C(N[C@@H](Cc1cccc(C(=O)O)c1O)B(O)O)c1cccc(CN2CCNCC2)c1 [Example 20, (1R)-(3-piperazin-1-ylmethyl-benzoylamino-(3-carboxy-2-hydroxy)benzyl-methylboronic acid formate] | 9.52 | 0.03 µg/mL | 1 µg/mL | >8 µg/mL | 7.70 | 4 µg/mL | 7.66 | 8.05 | 2 µg/mL | 7.38 | 6.75
CNCc1cccc(C(=O)N[C@@H](Cc2cccc(C(=O)O)c2O)B(O)O)c1 [Example 21, (1R)-(3-methylaminomethyl-benzoylamino)-(3-carboxy-2-hydroxy)benzyl-methylboronic acid formate] | 8.70 | 0.01 µg/mL | 1 µg/mL | >8 µg/mL | 8.52 | 4 µg/mL | 7.48 | 7.72 | 0.25 µg/mL | 6.08 | 6.85
Cc1cc(NCc2cccc(C(=O)N[C@@H](Cc3cccc(C(=O)O)c3O)B(O)O)c2)no1 [Example 28, (1R)-[3-{(5-methyl-isoxazol-3-ylamino)-methyl}-benzoylamino]-(3-carboxy-2hydroxy)benzyl-methylboronic acid formate] | 9.70 | 2 µg/mL | 4 µg/mL | >8 µg/mL | 9.15 | 8 µg/mL | 8.05 | 8.40 | 2 µg/mL | 7.82 | 6.52
NCc1cccc(CC(=O)N[C@@H](Cc2cccc(C(=O)O)c2O)B(O)O)c1 [Example 29, (1R)-[2-(3-aminomethyl-phenyl)-acetylamino]-(3-carboxy-2hydroxy)benzyl-methylboronic acid formate] | 8.22 | 0.03 µg/mL | 0.12 µg/mL | >8 µg/mL | 8.05 | 0.5 µg/mL | 6.23 | 7.80 | 0.12 µg/mL | 8.30 | 6.05
NCc1ccc(CC(=O)N[C@@H](Cc2cccc(C(=O)O)c2O)B(O)O)cc1 [Example 30, (1R)-[2-(4-aminomethyl-phenyl)-acetylamino]-(3-carboxy-2hydroxy)benzyl-methylboronic acid formate] | 7.92 | 0.01 µg/mL | 0.06 µg/mL | >8 µg/mL | 8.15 | 0.5 µg/mL | 6.60 | 8.05 | 0.12 µg/mL | 8.52 | 6.57
O=C(N[C@@H](Cc1cccc(C(=O)O)c1O)B(O)O)c1cccc(CNc2nccs2)c1 [Example 31, (1R)-[3-(thiazol-2-ylaminomethyl)-benzoylamino]-(3-carboxy-2-hydroxy)benzyl-methylboronic acid] | 9.22 | 0.25 µg/mL | 4 µg/mL | >8 µg/mL | 9.30 | 8 µg/mL | 8.00 | 8.52 | 2 µg/mL | 7.89 | 6.53
CC(=O)NCc1ccc(CC(=O)N[C@@H](Cc2cccc(C(=O)O)c2O)B(O)O)cc1 [Example 32, (1R)-[2-(4-acetylaminomethyl-phenyl)-acetylamino]-(3-carboxy-2hydroxy)benzyl-methylboronic acid] | 8.70 | 4 µg/mL | 0.5 µg/mL | >8 µg/mL | 8.70 | 0.5 µg/mL | 6.94 | 8.40 | >8 µg/mL | 9.52 | < 6.00
CNCc1ccc(CC(=O)N[C@@H](Cc2cccc(C(=O)O)c2O)B(O)O)cc1 [Example 33, (1R)-[2-(4-methylaminomethyl-phenyl)-acetylamino]-(3-carboxy-2hydroxy)benzyl-methylboronic acid formate] | 8.15 | 0.06 µg/mL | 0.12 µg/mL | >8 µg/mL | 8.10 | 0.5 µg/mL | 6.42 | 7.92 | 0.25 µg/mL | 8.30 | 6.47
O=C(Cc1ccc(CNCCO)cc1)N[C@@H](Cc1cccc(C(=O)O)c1O)B(O)O [Example 34, (1R)-[2-{4-((2-hydroxy-ethylamino)-methyl)-phenyl}-acetylamino]-(3-carboxy-2hydroxy)benzyl-methylboronic acid formate] | 8.40 | 0.03 µg/mL | 0.12 µg/mL | >8 µg/mL | 8.15 | 0.5 µg/mL | 6.59 | 7.74 | 0.5 µg/mL | 8.30 | 6.24
